Laboratory results as given in patent EP0463456A1, “Phosphorus-containing HMG-CoA reductase inhibitors, new intermediates and their use” (E.R. SQUIBB & SONS, INC., priority 1990, dated 1992).

System: cholesterol biosynthesis in rats
Assay: In vivo effect on cholesterol biosynthesis in rats (14C-Acetate Model; plasma 14C-nonsaponifiable lipid)
Design: species or system Male Sprague/Dawley rats
Settings: dose suppressing cholesterol synthesis in vivo by 50 percent
Procedure: SQ 34,346 in oral or IV dosage form was tested in vivo for its effect on cholesterol biosynthesis in rats (^14C-Acetate Model).
The following in vivo tests employed a rat model system to determine the in vivo cholesterol synthesis inhibitory activity of compounds which show cholesterol synthesis inhibition in whole cell systems (freshly isolated rat hepatocytes and cultured human skin fibroblasts), and which are potent inhibitors of HMG CoA reductase.
The method used for iv and po drug testing were adapted from a procedure originally described by Sandoz (U.S. Patent No. 4,613,610, Sept. 23, 1986, and Int'I Publication No. WO 86/00367, Derwent Nos. 86271640 and 8628274). […]
For iv testing, the salt forms of test compounds were routinely dissolved in saline and injected iv into the tail vein 5 minutes before ^14C-acetate injection. […] Cholesterol synthesis was measured by determining the level of ^14C-nonsaponifiable lipid present in one mL of plasma; the method used is a modification of the method described by Dugan, et al, (Dugan, R.E., L.L. Slakey, A.V. Briedis, and J. Porter, Arch. Biochem. Biophys., 152:21 (1972)). […] Samples were counted for both ^3H and ^14C in 10 mL Optiflour scintillation fluid using a Beckman LS3801 counter programed for double label counting. […]

Question: Which ED50 (i.v., injected into tail vein 5 minutes before 14C-acetate) does the source give for “(S)-4-[[[4-(4-Fluorophenyl)-1,2-bis(1-methylethyl)-5-phenyl-1H-pyrrol-3-yl]-ethynyl]hydroxyphosphinyl]-3-hydroxybutanoic acid, dilithium salt [SQ 34,346]” here?
Answer: 0.05 mg/kg

Question: And the ED50 (p.o., given 30 minutes before 14C-acetate)?
Answer: 1.13 mg/kg
